Source: US20260215427A1, “NON-BIPYRIDYL SALT HERBICIDE, PREPARATION METHOD THEREFOR, AND USE THEREOF” (priority 2022, published 2026)

Columns and labels:
humans = settings: background data; cited from earlier work
mice [1] = experiment: Organ indices and biochemical indicators 48 hours after intraperitoneal injection in mice; assay type: in vivo; settings: for levels of SOD and CAT in lung tissue / serum levels of TNF-α, IL-B, IL-6, AST, ALT, SCr, BUN, and uric acid: 50 mg/kg paraquat or same dose, 48 hour; for lung, liver, and kidney indices compared with the control group / cardiac index: 50 mg/kg paraquat or same molar dose, 48 hours; for cardiac index: among the three groups
Source text: P<0.05 is considered statistically significant, with 10 mice per group (n=10).
However, no significant differences in these biochemical indicators were detected after intraperitoneal injection of the compound of formula 2 diene diamine at the same molar concentration.

mice [2] = experiment: Transmission electron microscopy of main organs 48 hours after intraperitoneal injection in mice; assay type: in vivo; settings: 0.19 mmol/kg intraperitoneal
Method: 48 hours after intraperitoneal injection of 0.19 mmol/kg of paraquat or the compound of formula 2, transmission electron microscopy samples of the lung, liver, kidney, and heart were collected. The black arrow indicated mitochondrial damage, and the electron microscopy scale of the heart group was 200 nm, and the electron microscope scale of other groups was 100 nm.

A549 cells [3] = experiment: Intracellular ROS levels, DCF fluorescence, flow cytometry; assay type: cell-based; settings: 100 μM, 18 hours
Method: (§1) The above three types of cells were exposed to 100 μM PQ (100) and 100 μM of the compound of formula 2 and incubated for 18 hours, and the intracellular reactive oxygen species (ROS) levels were quantified using flow cytometry. Intracellular ROS levels were measured using DCF fluorescence (n=6).

Hep G2 cells [4] = experiment: as above; assay type: cell-based; settings: 100 μM, 18 hours
Method: as §1

COS-7 cells [5] = experiment: as above; assay type: cell-based; settings: 100 μM, 18 hours
Method: as §1

mice [6] = experiment: Acute toxicity test and LD50 determination in mice, intraperitoneal injection; assay type: in vivo
Method: (§2) In order to evaluate the safety of compound 2 of the present invention in vivo, acute toxicity tests were conducted on mice. Firstly, the LD50 of diene diamine in mice was measured. […] The toxicity of diene diamine in mice is low and the safety is high.

Bermuda grass [7] = experiment: Herbicidal performance, leaf spray under air and sunlight; assay type: in vivo; settings: for state of leaves 24 hours after spraying: various concentrations (1, 2, 4, 8 times PQ equivalent), air and sunlight
Source text: (§3) As is well-known, Bermuda grass, Arabidopsis thaliana, and Acorus calamus are naturalized green weeds in most parts of the world and are also invasive grasses. Photosynthesis occurs throughout their entire leaves and bundles. […] Therefore, Bermuda grass, Acorus calamus, and Arabidopsis thaliana were selected as plant models to evaluate the herbicidal performance of the compounds in the present invention.
(§4) Under air and sunlight, the compound of formula 2 of the present invention was sprayed on the leaf surface at concentrations of 1, 2, 4, and 8 times the PQ equivalent, respectively. Paraquat herbicide was used as the positive control, and physiological saline was used as the blank control group. The diameter of the observation range was 8 cm.

Acorus calamus = experiment: as above; assay type: in vivo; settings: for state of leaves 24 hours after spraying: various concentrations (1, 2, 4, 8 times PQ equivalent), air and sunlight
Source text: as §3, §4

Arabidopsis thaliana [8] = experiment: as above; assay type: in vivo; settings: for state of leaves 24 hours after spraying: various concentrations (1, 2, 4, 8 times PQ equivalent), air and sunlight
Source text: as §3, §4

mice [9] = experiment: PQ-induced lethality in mice, single intraperitoneal injection, dose and timing finding; assay type: in vivo
Method: Firstly, the optimal dose and timing for PQ-induced lethality in mice were determined through single intraperitoneal injection at doses of 20, 30, 40, 50, and 60 (mg/kg). […] Therefore, 50 mg/kg was chosen as the optimal dose. The mouse tissue samples were collected 48 hours after PQ administration.

mice [10] = experiment: Survival rate and body weight of mice after intraperitoneal injection; assay type: in vivo; settings: 0.19 mmol/kg intraperitoneal
mice [11] = experiment: Damage of major organs (histopathology) 48 hours after intraperitoneal injection in mice; assay type: in vivo; settings: 48 hours after intraperitoneal administration
Source text: The data is expressed as mean±standard error, with 6 mice per group (n=6), and P<0.05 indicates statistically significant differences. Scale bar: 50 μm.

A549 cells [12] = experiment: Direct cytotoxicity, cell viability and IC50; assay type: cell-based; settings: for cell viability: A549, co-culture 24 hours, concentration gradient
Source text: (§5) PQ is rapidly absorbed and distributed to the lungs, kidneys, liver, and muscles after entering the human body. Death caused by ingestion of PQ is usually due to multiple organ failure, such as pulmonary edema, kidney and liver failure. Therefore, lung cells (A549 cells), kidney cells (COS-7), and liver cells (Hep G2) were selected to evaluate the direct cytotoxicity of diene diamine.

Hep G2 cells [13] = experiment: Direct cytotoxicity, cell viability and IC50; assay type: cell-based; settings: for cell viability: Hep G2, co-culture 24 hours, concentration gradient
Source text: as §5

COS-7 cells [14] = experiment: Direct cytotoxicity, cell viability and IC50; assay type: cell-based; settings: for cell viability: COS-7, co-culture 24 hours, concentration gradient
Source text: as §5

[15] = Conversion of the compound of formula 2 to PQ under lighting and air conditions in physiological saline; assay type: physicochemical; settings: air; for Yield (conversion to PQ): darkness, 72 h; for Yield (conversion rate to PQ): natural light, 24 h
Arabidopsis thaliana [16] = experiment: Herbicidal mechanism: LC-MS, chlorophyll and photosystem parameters, electron microscopy after spraying; assay type: in vivo
[17] = Acute toxicity test and LD50 determination in mice, intraperitoneal injection; assay type: in vivo; settings: mouse, in vivo, ip; mice, intraperitoneal injection, seventh day
Method: as §2

A549 cells [18] = experiment: Apoptosis, Annexin V-FITC and propidium iodide staining; assay type: cell-based; settings: 24 hours of incubation
Source text: (§6) The data was expressed as + SEM. *p<0.05, p<0.05, **p<0.01, ***p<0.001, ****p<0.0001.

Hep G2 cells [19] = experiment: as above; assay type: cell-based; settings: 24 hours of incubation
Source text: as §6

COS-7 cells [20] = experiment: as above; assay type: cell-based; settings: 24 hours of incubation
Source text: as §6

[21] = Direct cytotoxicity, cell viability and IC50; assay type: cell-based; settings: 24 hours
Source text: as §5

Bermuda grass [22] = experiment: Herbicidal performance of the compound of formula 3, leaf spray, diquat as positive control; assay type: in vivo; settings: air and sunlight
Source text: Under air and sunlight, the compound of formula 3 of the present invention was sprayed on the surface of leaves, with herbicide diquat as a positive control. The diameter of the observation range was 10 cm.

[23] = 300 mg/kg intraperitoneal, 8 mice
[24] = 600 mg/kg intraperitoneal, 8 mice
[25] = 900 mg/kg intraperitoneal, 8 mice
[26] = 1050 mg/kg intraperitoneal, 8 mice
[27] = 1200 mg/kg intraperitoneal, 8 mice
[28] = 25 °C, listed as diene diamine compound

C[n+]1ccc(-c2cc[n+](C)cc2)cc1.[Cl-].[Cl-] [PQ, 1,1-dimethyl-4,4′-bipyridinium dichloride, reference compound]
mortality rate of toxic ingestion incidents (humans): 50-90%
levels of SOD and CAT in lung tissue (mice [1]): significantly decreased
serum levels of TNF-α, IL-B, IL-6, AST, ALT, SCr, BUN, and uric acid (mice [1]): significantly increased
lung, liver, and kidney indices compared with the control group (mice [1]): significantly increased
cardiac index (mice [1]): no statistical difference
mitochondrial structure in lung, liver, kidney, and heart tissues (transmission electron microscopy) (mice [2]): mitochondrial damage such as swelling, vacuolization, blurring, or fragmentation
intracellular ROS production (A549 cells [3]): significant increase in ROS production
intracellular ROS production (Hep G2 cells [4]): significant increase in ROS production
intracellular ROS production (COS-7 cells [5]): significant increase in ROS production
Mortality, n (%) Day 1 (mice [6]; [23]): 0 (0) n (%)
Mortality, n (%) Day 7 (mice [6]; [23]): 0 (0) n (%)
Mortality, n (%) Day 1 (mice [6]; [24]): 0 (0) n (%)
Mortality, n (%) Day 7 (mice [6]; [24]): 0 (0) n (%)
Mortality, n (%) Day 1 (mice [6]; [25]): 3 (37.5) n (%)
Mortality, n (%) Day 7 (mice [6]; [25]): 3 (37.5) n (%)
Mortality, n (%) Day 1 (mice [6]; [26]): 3 (37.5) n (%)
Mortality, n (%) Day 7 (mice [6]; [26]): 3 (37.5) n (%)
Mortality, n (%) Day 1 (mice [6]; [27]): 8 (100) n (%)
Mortality, n (%) Day 7 (mice [6]; [27]): 8 (100) n (%)
state of leaves 24 hours after spraying (Bermuda grass [7]): began to wither
state of leaves 24 hours after spraying (Acorus calamus): began to wither
state of leaves 24 hours after spraying (Arabidopsis thaliana [8]): began to wither
lung injury score (mice [9]; 24 hours after PQ administration): significant increase
time point of the highest lung injury score (mice [9]; compared to other time points): 48 h
survival time (mice [9]; single intraperitoneal injection, 20 and 30 mg/kg, all mice): over 168 hours
body weight on the first day (mice [9]; single intraperitoneal injection, 50 or 60 mg/kg): significant weight loss
weight of the mice (mice [10]): continued to decrease
mice died (mice [10]; within 112 hours after administration): 100%
pathological damage of major tissues (lung, liver, kidney, heart) (mice [11]): multiple organic damages accompanied by significant inflammation
tissue damage scores of the main organs (mice [11]): significantly higher than those in the control group and the diene diamine group
cell viability (A549 cells [12]): direct cytotoxic effects
IC50 (A549 cells [12]; A549 cells, 24 hours): 322 µM
cell viability (Hep G2 cells [13]): direct cytotoxic effects
IC50 (Hep G2 cells [13]; hep G2 cells, 24 hours): 131 µM
cell viability (COS-7 cells [14]): direct cytotoxic effects
IC50 (COS-7 cells [14]; Cos-7 cells, 24 hours): 114 µM

CN1CC=C(C2=CCN(C)CC2)CC1 [compound of formula 2, 1,1′-dimethyl-1,1′, 2,2′, 3,3′, 6,6′-octahydro-4,4′-bipyridine]
levels of SOD and CAT in lung tissue (mice [1]): no significant changes
serum levels of TNF-α, IL-B, IL-6, AST, ALT, SCr, BUN, and uric acid (mice [1]): no significant changes
lung, liver, and kidney indices compared with the control group (mice [1]): no statistical difference
cardiac index (mice [1]): no statistical difference
mitochondrial structure in lung, liver, kidney, and heart tissues (transmission electron microscopy) (mice [2]): No significant mitochondrial structural damage
Yield (conversion to PQ) ([15]; 25 °C): 0%
Yield (conversion to PQ) [15, 28]: hardly converted to PQ
Yield (conversion rate to PQ) ([15]; 25 °C): 30%
Yield (conversion rate to PQ) [15, 28]: about 30%
Yield (conversion rate to PQ) ([15]; 40 °C): 63%
Yield (conversion rate to PQ) ([15]; 40 °C, listed as diene diamine compound): about 63%
intracellular ROS production (A549 cells [3]): no significant changes
intracellular ROS production (Hep G2 cells [4]): no significant changes
intracellular ROS production (COS-7 cells [5]): no significant changes
electron microscopy findings after 8 hours (Arabidopsis thaliana [16]): chloroplast stroma lysis, swelling of thylakoids and mitochondrial cristae
electron microscopy findings after 24 hours (Arabidopsis thaliana [16]): rupture of mesophyll cell nuclei, mitochondria, and chloroplast envelopes
chlorophyll content, maximum fluorescence quantum yield of PSII, Fv/Fm value, and SPAD (Arabidopsis thaliana [16]; natural sunlight and air): significant decreases
deaths (mice [6]; [27]): Eight mice died
survival (mice [6]; 300 and 600 mg/kg intraperitoneal, third day after administration): all mice survived
deaths (mice [6]; 900 and 1050 mg/kg intraperitoneal, respectively, 8 mice per dose): Three mice died
LD50 at 7 day [17]: 1000 mg/kg
weed control effect compared with PQ (Bermuda grass [7]; same or twice the dose of PQ): slightly delayed weed control effect
state of leaves 24 hours after spraying (Bermuda grass [7]): began to wither
weed control effect compared with PQ (Acorus calamus; same or twice the dose of PQ): slightly delayed weed control effect
state of leaves 24 hours after spraying (Acorus calamus): began to wither
weed control effect compared with PQ (Arabidopsis thaliana [8]; same or twice the dose of PQ): slightly delayed weed control effect
state of leaves 24 hours after spraying (Arabidopsis thaliana [8]): began to wither
apoptosis rate compared to the PQ group (A549 cells [18]): significantly reduced
apoptosis rate compared to the PQ group (Hep G2 cells [19]): significantly reduced
apoptosis rate compared to the PQ group (COS-7 cells [20]): significantly reduced
weight of the mice (mice [10]): continued to steadily increase
survival (mice [10]; after 168 hours): all mice in the group of the compound of formula 2 survived
pathological damage of major tissues (lung, liver, kidney, heart) (mice [11]): no significant pathological damage
cell viability (A549 cells [12]): no significant changes in cell viability
IC50 value relative to the PQ treatment group (A549 cells [12]; A549 cells): increased by dozens of times
cell viability (Hep G2 cells [13]): no significant changes in cell viability
IC50 value relative to the PQ treatment group (Hep G2 cells [13]; Hep G2 cells): increased by dozens of times
IC50 ([21]; African green monkey, Cos-7 cells): 1570 µM
IC50 ([21]; human, A549 cells): 5770 µM
IC50 ([21]; human, hep G2 cells): 1360 µM
cell viability (COS-7 cells [14]): no significant changes in cell viability
IC50 value relative to the PQ treatment group (COS-7 cells [14]; COS-7 cells): increased by dozens of times

C1=CCN2CCN3CC=CCC3C2C1 (stereo not drawn) [compound of formula 3, 1,4,6,7,9,12,12a, 12b octahydrodipyridin [1,2-a: 2′, 1′-c]pyrazine]
weed control effect relative to diquat (Bermuda grass [22]): comparable to that of diquat
state of leaves 3 days after spraying (Bermuda grass [22]; concentration not specified): began to wither
state of leaves after 5 days (Bermuda grass [22]; concentration not specified): completely withered
